Broadly, the MIC is the lowest concentration found to suppress growth. Higher therefore signals a need for much substance.

Converted amounts (≈) assume the structure as drawn.

Among the data in DBAASP are MIC values, retold here.

Experiment in all cases: ≥ marks a high value that may be exact or a test limit, other limits are often not marked, values filed in µg/mL are converted to µM
Assay [1] has as its system Alternaria alternata.
The test system of assay [2] is Fusarium solani.
The subject of assay [3] is Cladosporium herbarum.
The subject of assay [4] is Xanthomonas vesicatoria DSM 50861.
Assay [5] has as its system Pseudomonas syringae pv. tomato DC3000.
For assay [6], the system named is Clavibacter michiganensis subsp. michiganensis DSM 46294.
Assay [7] deals with Pectobacterium carotovorum subsp. carotovorum DSM 30168.
In assay [8] the test system is Botrytis cinerea.
Assay [9] deals with Pseudomonas corrugata DSM 7228.
For assay [10], the system named is Pseudomonas syringae pv. syringae DSM 10604.
Assay [11] has as its system Staphylococcus aureus ATCC 29213.
For assay [12], the system named is Escherichia coli UB1005.
Assay [13] concerns Bacillus subtilis CMCC 63501.
In assay [14] the test system is Staphylococcus aureus ATCC 25923.
Assay [15] has as its system Salmonella enterica subsp. enterica serovar Typhimurium C77-31.
Assay [16] concerns Candida albicans CA2761.
For assay [17], the system named is Staphylococcus epidermidis ATCC 12228.
The test system of assay [18] is Candida krusei CGMCC 2.1857.
In assay [19] the test system is Escherichia coli ATCC 25922.
Assay [20] has as its system Escherichia coli EC183.
In assay [21] the test system is Candida albicans CGMCC 2.2086.
Assay [22] has as its system Candida tropicalis CGMCC 2.1975.
Assay [23] has as its system Staphylococcus aureus ATCC 2592.
For assay [24], the system named is Candida albicans SC5314.
For assay [25], the system named is Bacillus subtilis.
Assay [26] has as its system Pseudomonas aeruginosa ATCC 9721.
Assay [27] concerns Pseudomonas aeruginosa ATCC 10145.
The subject of assay [28] is Acinetobacter baumannii ATCC BAA-1605.
The test system of assay [29] is Pseudomonas aeruginosa 1109.
Assay [30] deals with Acinetobacter baumannii NR-9667.
For assay [31], the system named is Pseudomonas aeruginosa ATCC 9027.
In assay [32] the test system is Pseudomonas aeruginosa ATCC 25619.
Assay [33] concerns Pseudomonas aeruginosa ATCC 27853.
Assay [34] deals with Pseudomonas aeruginosa ATCC 15442.
The test system of assay [35] is Acinetobacter baumannii ATCC BAA-747.
Assay [36] relates to Pseudomonas aeruginosa ATCC BAA-1744.
Assay [37] concerns Acinetobacter baumannii ATCC 19606.
Assay [38] concerns Pseudomonas aeruginosa ATCC 35032.
Assay [39] concerns Pseudomonas aeruginosa PAO1.

For the molecule `C[C@H](NC(=O)[C@H](Cc1cnc[nH]1)NC(=O)[C@H](CO)NC(=O)[C@@H](N)CC(=O)O)C(=O)N[C@@H](CCCCN)C(=O)N[C@@H](CCCN=C(N)N)C(=O)N[C@@H](Cc1cnc[nH]1)C(=O)N[C@@H](Cc1cnc[nH]1)C(=O)NCC(=O)N[C@H](C(=O)N[C@@H](CCCCN)C(=O)N[C@@H](CCCN=C(N)N)C(=O)N[C@@H](CCCCN)C(=O)N[C@@H](Cc1ccccc1)C(=O)N[C@@H](Cc1cnc[nH]1)C(=O)N[C@@H](CCC(=O)O)C(=O)N[C@@H](CCCCN)C(=O)N[C@@H](Cc1cnc[nH]1)C(=O)N[C@@H](Cc1cnc[nH]1)C(=O)N[C@@H](CO)C(=O)N[C@@H](Cc1cnc[nH]1)C(=O)N[C@@H](CCCN=C(N)N)C(=O)NCC(=O)N[C@H](C(=O)O)[C@@H](C)O)[C@@H](C)O` [DSHAKRHHGTKRKFHEKHHSHRGT], the MIC in assay [1] is 22 µM (≈ 64 µg/mL); in [2], 5.49 µM (≈ 16 µg/mL); in assay [3], 22 µM (≈ 64 µg/mL); in assay [4] it was 22 µM (≈ 64 µg/mL); in assay [5], 22 µM (≈ 64 µg/mL); in assay [6] it was 22 µM (≈ 64 µg/mL). For the same molecule, the MIC in assay [7], in assay [8], in assay [9] and in [10] was 22 µM (≈ 64 µg/mL) throughout.
Regarding `CC[C@H](C)[C@H](NC(=O)[C@H](Cc1c[nH]c2ccccc12)NC(=O)[C@H](CCCCN)NC(=O)[C@H](CC(C)C)NC(=O)[C@@H](NC(=O)[C@H](CCCCN)NC(=O)CNC(=O)[C@@H](NC(=O)[C@H](CCCCN)NC(=O)[C@H](CCCCN)NC(=O)[C@H](CC(C)C)NC(=O)[C@H](CCCN=C(N)N)NC(=O)[C@H](CCCCN)NC(=O)[C@H](CCCN=C(N)N)NC(=O)[C@@H](NC(=O)[C@H](CCCCN)NC(=O)[C@H](CCCCN)NC(=O)[C@@H](N)CCCN=C(N)N)[C@@H](C)O)[C@@H](C)CC)C(C)C)C(N)=O` [RKKTRKRLKKIGKVLKWI], the MIC turned out to be 4 µM (≈ 9.12 µg/mL) in assay [11]; 2 µM (≈ 4.56 µg/mL) in assay [12]; 1 µM (≈ 2.28 µg/mL) in [13]; 8 µM (≈ 18.2 µg/mL) in [14]; 2 µM (≈ 4.56 µg/mL) in assay [15]; 8 µM (≈ 18.2 µg/mL) in [16]. Also, the minimal inhibitory concentration (MIC) in assay [17] was 4 µM (≈ 9.12 µg/mL); in assay [18], 4 µM (≈ 9.12 µg/mL); in [19] it was 2 µM (≈ 4.56 µg/mL); in assay [20], 1 µM (≈ 2.28 µg/mL); in assay [21], 16 µM (≈ 36.5 µg/mL); in assay [22] it was 2 µM (≈ 4.56 µg/mL).
As for `CC[C@H](C)[C@H](NC(=O)[C@H](Cc1c[nH]c2ccccc12)NC(=O)[C@H](CCCCN)NC(=O)[C@H](CC(C)C)NC(=O)[C@@H](NC(=O)[C@H](CCCCN)NC(=O)CNC(=O)[C@@H](NC(=O)[C@H](CCCCN)NC(=O)[C@H](CCCCN)NC(=O)[C@H](CC(C)C)NC(=O)[C@H](CCCN=C(N)N)NC(=O)[C@H](CCCCN)NC(=O)[C@H](CCCN=C(N)N)NC(=O)[C@@H](NC(=O)[C@H](CCCCN)NC(=O)[C@H](CCCCN)NC(=O)[C@H](CCCN=C(N)N)NC(=O)[C@H](CC(C)C)NC(=O)[C@H](CCCN=C(N)N)NC(=O)[C@@H](N)CCCN=C(N)N)[C@@H](C)O)[C@@H](C)CC)C(C)C)C(N)=O` [RRLRKKTRKRLKKIGKVLKWI], the minimum inhibitory concentration (MIC) in assay [11] was 4 µM (≈ 10.8 µg/mL); in assay [12], 2 µM (≈ 5.41 µg/mL); in assay [13], 1 µM (≈ 2.7 µg/mL); in assay [14], 4 µM (≈ 10.8 µg/mL); in assay [15] it was 1 µM (≈ 2.7 µg/mL); in [16], 8 µM (≈ 21.6 µg/mL). The minimum inhibitory concentration (MIC) in assay [17] was determined as 4 µM (≈ 10.8 µg/mL); in assay [18] it was 2 µM (≈ 5.41 µg/mL); in assay [19] it was 2 µM (≈ 5.41 µg/mL); in assay [20], 1 µM (≈ 2.7 µg/mL); in [21], 8 µM (≈ 21.6 µg/mL); in assay [22], 1 µM (≈ 2.7 µg/mL).
`CC(C)[C@H](N)C(=O)N[C@@H](CCCCN)C(=O)N[C@@H](CCCN=C(N)N)C(=O)N[C@@H](Cc1c[nH]c2ccccc12)C(=O)N[C@@H](CCCCN)C(=O)N[C@@H](CCCCN)C(=O)N[C@@H](Cc1c[nH]c2ccccc12)C(=O)N[C@@H](Cc1ccccc1)C(=O)N[C@@H](CCCN=C(N)N)C(=O)N[C@@H](CCCCN)C(=O)N[C@@H](Cc1c[nH]c2ccccc12)C(=O)N[C@@H](CCCCN)C(=O)N[C@@H](CCCCN)C(=O)N[C@@H](Cc1c[nH]c2ccccc12)C(=O)N[C@H](C(N)=O)C(C)C` [VKRWKKWFRKWKKWV]: the MIC in assay [23] turned out to be 8.5 µM (≈ 18.6 µg/mL); in assay [24], 4.3 µM (≈ 9.41 µg/mL); in assay [25], 4.3 µM (≈ 9.41 µg/mL); in assay [19], 2.1 µM (≈ 4.6 µg/mL).
On to `CC[C@H](C)[C@H](NC(=O)[C@H](CCCCN)NC(=O)[C@H](CCCCN)NC(=O)[C@H](Cc1c[nH]c2ccccc12)NC(=O)[C@@H](NC(=O)[C@H](CCCCN)NC(=O)[C@@H](NC(=O)[C@H](CCCN=C(N)N)NC(=O)[C@H](CCCN=C(N)N)NC(=O)[C@H](CCCCN)NC(=O)[C@@H](N)Cc1c[nH]c2ccccc12)[C@@H](C)CC)[C@@H](C)CC)C(=O)N[C@@H](CCCN=C(N)N)C(=O)O` [WKRRIKIWKKIR], for which the MIC was at least 256 µM in assay [26]; at least 256 µM in assay [27]; at least 256 µM in assay [28]; at least 128 µM in [29]; at least 256 µM in [30]; over 256 µM in assay [31]. The minimal inhibitory concentration (MIC) in assay [32] was at least 256 µM; in [33] it was 256 µM (≈ 438 µg/mL); in [34], at least 256 µM; in [35] it was at least 256 µM; in assay [36], at least 256 µM; in assay [37], over 256 µM. In addition, the MIC in assay [38] was at least 256 µM; in assay [39], over 256 µM.
